We go through four molecules from patent publication US11401243B2, “Quinoline derived small molecule inhibitors of nicotinamide N-methyltransferase (NNMT) and uses thereof” (priority 2017, dated 2022).

Entries after “also recorded” stand apart in the source; their conditions may differ. Read-outs that look alike come from different tables or passages of the source. Where only a bound is given, the exact number is not on record here.

Data set [1] can be described thus: Parallel artificial membrane permeability assay (PAMPA). The format is in vitro ADME. The following applies: for Papp at 4 h, 400 μM: 400 μM in PBS, room temperature, read-out: Flux; for Permeability Classification (passive transport): BCS classification. Here is the method:
Samples were tested in triplicates in three separate experiments.

Data set [2] concerns the target T1, human NNMT (mt-hNNMT) (Homo sapiens, UniProt P40261, E101A/E103A/K100A).
T1 sequence (P40261 1-261 K100A/E101A/E103A limits assumed): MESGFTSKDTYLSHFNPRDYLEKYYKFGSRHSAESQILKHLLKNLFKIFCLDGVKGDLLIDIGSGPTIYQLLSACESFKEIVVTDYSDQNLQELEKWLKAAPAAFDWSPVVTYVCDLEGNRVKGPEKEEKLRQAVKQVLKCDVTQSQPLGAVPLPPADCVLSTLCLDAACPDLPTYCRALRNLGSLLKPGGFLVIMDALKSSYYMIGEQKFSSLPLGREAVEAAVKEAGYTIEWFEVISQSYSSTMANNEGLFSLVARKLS
Particulars: values from applicant's published SAR study; read-out: IC50 (NNMT inhibition); cited from earlier work.

The test system of data set [3] is NNMT activity in 3T3-L1 pre-adipocytes and differentiated adipocytes. Put plainly: Quantitative measurement of NNMT reaction product 1-MNA in cultured cells (LC/MS/MS). It is filed as cell-based. The following applies: 10 μM, 24 h. Here is the method: Differentiation of 3T3-L1 pre-adipocytes. […] Briefly, standard culture media was supplemented with scheduled addition of adipogenic agents [3-isobutyl-1methyl xanthine (IBMX), Sigma Aldrich; MO, USA), dexamethasone (Sigma Aldrich; MO, USA), insulin (Gibco Life Technologies Inc.; Grand Island, N.Y., USA)] over 10 days to promote differentiation of 3T3-L1 fibroblasts into adipocytes; a combination of 1 mM IBMX, 1 μM dexamethasone, and 10 μg/ml of insulin in media were added to fully confluent 3T3-L1 fibroblasts for three days (days 0-3) to initiate differentiation. At day 3, the media was replaced with culture media supplemented with insulin (10 μg/ml). After day 6, cells were maintained in culture media until described experiments were begun (days 8-10).
Cellular 1-MNA concentrations were determined using an ultra-sensitive high-resolution AB Sciex 6500 Q-trap mass spectrometer coupled to an Agilent 1260 ultra-high pressure liquid chromatography (LC/MS/MS) system. Using multiple reaction monitoring (MRM) positive ion mode, the 1-MNA NNMT reaction product was quantified from peak area ratios using AB Sciex Analyst and MultiQuant 2.1 software and the parent precursor and Q3 masses set to m/z 137.1 and 94.1, respectively. Fragment ions at m/z of 92.1 and 77.9 were additionally used for the detection and confirmation of 1-MNA, respectively. […]. To determine the effect of NNMT inhibitor on NNMT activity in the pre-adipocytes and differentiated adipocytes (8×10^4 cells/well seeded prior to beginning differentiation), cells were treated with 30 μM inhibitor for 24 h. Similarly, to compare the relative effects of multiple NNMT inhibitors on NNMT activity in cultured adipocytes, differentiated adipocytes in 6-well plates were treated with 10 μM test compound for 24 h. Following treatment, media was replaced with 80% (v/v) methanol (cooled to −80° C.) containing 500 nmol 6-chloronicotinamide (6-CN) as an internal standard (IS) to extract cellular metabolites. Adherent cells were scrapped, then centrifuged at 4° C. and 13000 g for 15 min, and the resulting supernatants processed using established protocols. […]. Data were subsequently normalized to the IS peak area and transformed as % control values for cross-sample comparisons. […] Choice of inhibitor concentrations and time period was chosen based on the results from the MTT studies.

The target in data set [4] is recombinant human DNMT1 enzyme (Homo sapiens, UniProt P26358). Put plainly: DNMT1 activity assay (radiometric). It is filed as biochemical.
In data set [5] the target is recombinant human PRMT3 enzyme (Homo sapiens, UniProt O60678). As to the kind of experiment: PRMT3 activity assay (radiometric). The format is biochemical. The text has this: Test compounds were screened in biochemical assays for activity against three structurally similar methyltransferases, including catechol-O-methyltransferase (COMT), DNA (cytosine-5)-methyltransferase 1 (DNMT1), and protein arginine methyltransferase 3 (PRMT3). Additional biochemical assays were used to test the ability of compounds to inhibit nicotinamide phosphoribosyl transferase (NAMPT) and NAD+-dependent protein deacetylase sirtuin 1 (SIRT1), two enzymes in the NAD+ biosynthesis/salvage pathway. All assays were performed by Reaction Biology Corporation (RBC; Malvern, Pa., USA) and complete assay details are noted below. For each test compound, IC50 values were calculated from dose-response curves established with 10 concentrations of a half-log dilution series. For each assay, established enzyme specific inhibitors were included as positive controls for enzyme function and assay reproducibility. IC50 values were determined by non-linear least-squares fitting of a 4-parameter dose-response curve to collected data points (Graphpad Prism 7.0; La Jolla, Calif., USA).
PRMT3 activity assay. […] The analogues, 1,8-diMQ and 5-amino-1MQ were tested at concentrations from 200 μM-10 nM and 600 μM-10 nM, respectively. Reactions were performed with 5 μM histone H3 (histone L-arginine) substrate, 1 μM radiolabeled S-adenosyl-L-[methyl-3H]methionine (SAM) co-substrate, and recombinant human PRMT3 enzyme. Activity was monitored via quantification of radiolabeled reaction product histone [methyl-3H]-L-arginine.

Data set [6] has as its target T2, recombinant human COMT enzyme (Homo sapiens, UniProt P21964).
T2 construct: Reaction Biology Corporation (ran the assay)
T2 sequence (P21964 1-271): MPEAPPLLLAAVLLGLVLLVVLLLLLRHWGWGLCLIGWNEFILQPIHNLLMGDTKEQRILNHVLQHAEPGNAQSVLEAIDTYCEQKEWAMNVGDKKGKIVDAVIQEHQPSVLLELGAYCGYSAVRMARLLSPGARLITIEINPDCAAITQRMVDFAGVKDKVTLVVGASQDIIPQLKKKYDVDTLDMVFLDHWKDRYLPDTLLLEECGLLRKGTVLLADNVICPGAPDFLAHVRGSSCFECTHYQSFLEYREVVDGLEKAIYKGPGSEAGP
Put plainly: COMT activity assay (radiometric). It is filed as biochemical. Particulars: maximal tested concentration 200 μM.

The next data set relates to Caco-2 cells. Put plainly: Bi-directional permeability assay with Caco-2 cells.
Test in data set [7]: as above
Particulars: human, Caco-2, pH 7.4.

Data set [8] deals with T1, human NNMT (mt-hNNMT). Put plainly: NNMT activity assay (HPLC-UV detection of MNA), NNMT IC50 curves. The following applies: NNMT Inhibition IC50, mean ± SD of duplicate or triplicate measurements; NI = no observable inhibition.
The target in data set [9] is recombinant human NAMPT enzyme (Homo sapiens, UniProt P43490). Put plainly: NAMPT activity assay (fluorometric). It is filed as biochemical. Particulars: concentrations between 30 and 600 μM (data not shown).
Where [10] appears, read: 10 nM to 200 μM (1,8-diMQ) or 600 μM (5-amino-1MQ).

Sequence of recombinant human PRMT3 enzyme (O60678 whole entry): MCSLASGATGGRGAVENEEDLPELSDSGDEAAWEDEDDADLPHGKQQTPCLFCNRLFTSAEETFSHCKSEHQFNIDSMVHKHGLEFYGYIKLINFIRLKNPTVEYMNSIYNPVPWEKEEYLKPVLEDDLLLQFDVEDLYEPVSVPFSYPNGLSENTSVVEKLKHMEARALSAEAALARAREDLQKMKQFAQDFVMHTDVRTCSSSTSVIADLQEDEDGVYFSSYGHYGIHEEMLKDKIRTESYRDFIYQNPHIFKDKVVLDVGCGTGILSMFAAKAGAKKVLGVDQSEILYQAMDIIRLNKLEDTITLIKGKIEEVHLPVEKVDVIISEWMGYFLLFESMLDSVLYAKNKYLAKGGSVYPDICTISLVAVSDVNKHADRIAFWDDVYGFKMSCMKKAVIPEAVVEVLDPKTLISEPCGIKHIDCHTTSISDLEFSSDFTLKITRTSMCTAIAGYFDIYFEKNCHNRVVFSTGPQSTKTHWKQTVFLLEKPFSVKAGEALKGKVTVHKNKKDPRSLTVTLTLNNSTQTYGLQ
Sequence of recombinant human DNMT1 enzyme (P26358 whole entry): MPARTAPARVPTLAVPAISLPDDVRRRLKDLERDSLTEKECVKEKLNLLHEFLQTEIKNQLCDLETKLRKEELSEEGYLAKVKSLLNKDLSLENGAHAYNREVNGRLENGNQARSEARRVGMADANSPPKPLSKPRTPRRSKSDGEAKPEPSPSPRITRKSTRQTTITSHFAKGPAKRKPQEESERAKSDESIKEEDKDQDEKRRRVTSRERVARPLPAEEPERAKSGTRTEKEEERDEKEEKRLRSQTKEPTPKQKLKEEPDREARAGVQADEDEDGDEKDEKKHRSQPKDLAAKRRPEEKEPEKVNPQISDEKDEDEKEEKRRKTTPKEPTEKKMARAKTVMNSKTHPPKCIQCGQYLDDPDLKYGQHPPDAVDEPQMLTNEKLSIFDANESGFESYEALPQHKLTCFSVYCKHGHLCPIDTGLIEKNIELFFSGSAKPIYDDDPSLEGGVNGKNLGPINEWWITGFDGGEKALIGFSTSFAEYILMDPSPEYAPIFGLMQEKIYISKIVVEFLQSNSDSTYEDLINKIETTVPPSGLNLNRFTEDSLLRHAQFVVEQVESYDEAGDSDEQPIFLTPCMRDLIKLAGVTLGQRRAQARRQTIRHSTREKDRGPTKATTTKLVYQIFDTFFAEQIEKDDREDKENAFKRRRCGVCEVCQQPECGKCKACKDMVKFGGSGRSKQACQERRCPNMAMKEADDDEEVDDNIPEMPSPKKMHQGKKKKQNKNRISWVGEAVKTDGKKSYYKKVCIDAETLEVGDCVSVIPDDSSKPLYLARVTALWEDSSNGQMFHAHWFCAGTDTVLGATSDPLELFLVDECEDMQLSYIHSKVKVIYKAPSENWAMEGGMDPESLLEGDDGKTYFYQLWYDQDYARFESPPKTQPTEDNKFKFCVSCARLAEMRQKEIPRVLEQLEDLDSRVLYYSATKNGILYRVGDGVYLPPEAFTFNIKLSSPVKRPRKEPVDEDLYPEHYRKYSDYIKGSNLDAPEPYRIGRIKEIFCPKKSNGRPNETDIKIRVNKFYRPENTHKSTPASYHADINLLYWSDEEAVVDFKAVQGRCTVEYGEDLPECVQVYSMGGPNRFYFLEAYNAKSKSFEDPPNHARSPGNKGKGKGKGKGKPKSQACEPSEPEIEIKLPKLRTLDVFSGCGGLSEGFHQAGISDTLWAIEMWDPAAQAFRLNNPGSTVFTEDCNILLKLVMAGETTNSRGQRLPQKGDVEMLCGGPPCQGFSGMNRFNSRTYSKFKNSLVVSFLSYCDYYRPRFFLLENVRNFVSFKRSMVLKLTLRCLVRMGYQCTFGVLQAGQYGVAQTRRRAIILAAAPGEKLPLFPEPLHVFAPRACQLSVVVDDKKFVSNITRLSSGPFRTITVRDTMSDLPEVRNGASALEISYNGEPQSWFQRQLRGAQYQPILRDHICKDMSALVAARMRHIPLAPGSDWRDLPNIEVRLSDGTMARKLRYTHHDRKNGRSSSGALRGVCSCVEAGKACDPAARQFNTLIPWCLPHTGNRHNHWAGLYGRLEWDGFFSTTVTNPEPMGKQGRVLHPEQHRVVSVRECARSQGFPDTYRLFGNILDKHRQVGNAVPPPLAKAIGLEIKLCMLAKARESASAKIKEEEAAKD
Sequence of recombinant human NAMPT enzyme (P43490 whole entry): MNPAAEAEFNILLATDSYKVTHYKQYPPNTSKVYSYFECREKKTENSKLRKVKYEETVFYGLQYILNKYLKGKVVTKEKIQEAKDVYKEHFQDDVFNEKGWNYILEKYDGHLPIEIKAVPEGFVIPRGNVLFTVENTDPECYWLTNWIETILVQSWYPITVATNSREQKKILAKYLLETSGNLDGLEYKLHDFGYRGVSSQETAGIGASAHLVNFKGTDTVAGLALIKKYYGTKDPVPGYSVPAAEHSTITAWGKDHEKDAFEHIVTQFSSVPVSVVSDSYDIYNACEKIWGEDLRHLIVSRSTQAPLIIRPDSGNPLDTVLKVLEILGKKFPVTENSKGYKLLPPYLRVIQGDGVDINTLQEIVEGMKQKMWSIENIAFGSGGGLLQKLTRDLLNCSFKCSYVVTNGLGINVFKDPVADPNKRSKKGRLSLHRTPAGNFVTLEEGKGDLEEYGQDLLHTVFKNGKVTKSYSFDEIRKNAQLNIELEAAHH

For the molecule `Cc1cc(C)[n+](C)c2c(C)cccc12` [1,2,4,8-tetraMQ], in data set [1], the Papp at 4 h, 400 μM stood at 0.698 ×10⁻⁶ cm/s and the “Permeability Classification (passive transport)” value is “low, but non-zero, permeability; also recorded: Low permeability”. In addition, at human NNMT (mt-hNNMT) [2], the IC50 was 109 µM. In [3], the “1-MNA levels in differentiated adipocytes relative to control” value is listed as “did not significantly decrease”.
Turning to `Cc1cccc2ccc[n+](C)c12` [1q], the “inhibition of DNMT1 (in words)” value in data set [4] (setting [10]) was “did not inhibit”. Moreover, the IC50 in [4] (read-out: IC50, DNA (cytosine-5)-methyltransferase 1, NI: no inhibition) is over 200 µM; on human NNMT (mt-hNNMT) [8], 1.8 ± 0.5 µM. In addition, in [5] (setting [10]), the “inhibition of PRMT3 (in words)” value is listed as “did not inhibit”. Also, in [6], the inhibition at 200 µM amounted to 20%. For the same molecule, the Papp at 4 h, 400 μM in data set [1] was found to be 0.864 ×10⁻⁶ cm/s. The “Permeability Classification (passive transport)” value in data set [1] (listed as 1,8-diMQ) was “low, but non-zero, permeability; also recorded: Low permeability”. Besides, in the data set with Caco-2 cells (Caco-2, 10 μM, 2 h, pH 7.4, BLQ = no peak detected in receiver side), the “Mean A→B Papp” value is given as “BLQ”. In addition, in the data set on Caco-2 cells (Caco-2, listed as 1,8-diMQ), the “Classification (active transport / efflux)” value is on record as “very low bi-directional transport; also recorded: Low permeability”. Also, the Papp B→A at 2 h, 10 μM in [7] was 1.78 ×10⁻⁶ cm/s.
On to `C[n+]1cccc2c(N)c(F)ccc21` [5-amino-6-fluoro-1MQ], for which the “inhibition of NAMPT (in words)” value in [9] was “no inhibition”.
Turning to `Nc1ncnc2c1ncn2[C@@H]1O[C@H](CSCC[C@H](N)C(=O)O)[C@@H](O)[C@H]1O` [SAH, S-adenosylhomocysteine, reference compound], the IC50 in data set [5] (NC: not calculable (no significant inhibition), read-out: IC50, Protein arginine methyltransferase 3) is 6.6 ± 1.2 µM.
